Assay results: patent US10220008B2, “Treatment and prevention of stroke and other neurological disorders” (STC.UNM, priority 2013, dated 2019)
“Also recorded” adds a separate entry of the source. Structures can show the parent of a compound that is named as a salt.

Tests used:
primary cortical neurons [1] = experiment: Secondary screening: TUNEL apoptosis assay after 2 hours OGD, compounds given at or after reoxygenation; format: cell-based, Spraque-Dawley rat; conditions: for dose providing maximum neuroprotection against OGD-induced apoptosis (optimal dose): at reoxygenation after 2 hours OGD; for neuroprotection when administered after reoxygenation onset (time course): optimal dose given 0, 15, 30, 60 minutes after reoxygenation onset after 2 hours OGD
Procedure: Cortical neurons were obtained from Spraque-Dawley rat embryos at day 18 of gestation. Cortices were triturated and pre-plated 4 times for 30 minutes in 150 mm vacuum-plasma treated dishes (BD). During these pre-plating steps, primarily non-neuronal cells adhere to the dish, thereby enriching the neuronal population. Enriched neurons were plated in Neurobasal medium containing 2% fetal bovine serum (FBS), 25 μM Glutamax, and penicillin-streptomycin (Gibco) in poly-D-lysine-coated white clear-bottomed 96-well plates or 24-well plates (Becton-Dickinson) at a density of 50×10^3/cm^2. Twenty-four hours later (1 day in vitro, 1 DIV), 50% of the medium was replaced with Neurobasal medium, 2% B27 (Gibco), and 4 μM cytosine arabinoside (AraC) (2 μM AraC final). At 5 DIV, 50% of the medium was replaced with Neurobasal, 2% B27. At 7 DIV, cortical cultures were 98% neurons as assessed by microtubule-associated protein 2 (MAP2) antibody labeling and flow cytometry analysis (data not shown). In vitro experiments were performed in quadruplicate and results are shown as means with standard deviation.
Neuroprotection by candidate compounds was assayed by measurement of apoptosis using terminal deoxynucleotidyl transferase dUTP nick end labeling (TUNEL) reagents as described previously.^6 At 7 DIV, primary neurons grown on poly-D-lysine-coated 22 mm-diameter cover slips in 24-well plates underwent 2 hours of OGD and were treated with a range of doses of each compound at reoxygenation. Compounds providing greater than 2-fold protection over vehicle were then administered at the optimal dose after OGD at intervals of 0, 15, 30, and 60 minutes post-reoxygenation.

[2] = tested on: spontaneously hypertensive rats (SHR); experiment: Middle cerebral artery occlusion (MCAO) model of transient focal ischemia; format: in vivo, rat
Source text: All animal procedures were approved by the University of New Mexico Institutional Animal Care and Use Committee and were in compliance with federal guidelines. Male spontaneously hypertensive rats (SHR) weighing 290-300 g were obtained from Charles River Laboratories. Animals were anesthetized with 2% isoflurane inhalant during all surgical procedures. The right common carotid artery (CCA) was ligated approximately 6 mm caudal to the bifurcation of the external and internal carotid arteries. With a vascular clamp in place on the CCA immediately caudal to the bifurcation, an incision was made in the CCA 5 mm caudal to the clamp and a nylon suture (Doccol Corporation) 30 mm in length with a 2-3 mm silicone coated tip (0.39 mm diameter) was advanced into the CCA lumen and secured in place with 2 4-0 silk sutures spaced 3 mm apart and tied loosely around the CCA caudal to the clamp. The clamp was removed and the suture advanced into the internal carotid artery until resistance was felt. In this position, the filament occludes the MCA origin and MCA territory becomes ischemic. The suture was secured with the 2 silk sutures around the CCA. […] Edema-corrected infarct volume was calculated by subtracting the area of non-infarcted tissue in the ipsilateral hemisphere from the total volume of the contralateral hemisphere. Infarct volume was quantified using Image J software.

primary cortical neurons [3] = experiment: High-throughput oxygen-glucose deprivation (OGD) screen of the Prestwick Chemical Library, CytotoxGlo dead/live cell protease ratio; format: cell-based, Spraque-Dawley rat; conditions: pretreatment, 10 μM, pure cortical neurons
Procedure: The Prestwick Chemical Library (Prestwick Chemical) was screened for neuroprotection in OGD by pre-treating 7 DIV cortical neurons in 96-well dishes with 10 μM compounds for 30 minutes. All liquid handling was automated and performed by a Beckman Coulter Biomek NX multichannel pipettor. The pretreatment medium was transferred to a clean plate for storage and was kept at 37° C. in a 5% CO2 environment during the OGD exposure. After pretreatment, cells were washed 3 times with deoxygenated glucose-free Hank's buffered saline solution (HBSS), pH 7.4, to remove glucose and oxygen and were covered with 100 μl HBSS. HBSS was deoxygenated in a gas washing bottle with 60 liters of 95% nitrogen, 5% CO2 per 250 ml HBSS. HBSS was maintained at 37° C. during deoxygenation in a water bath. Compounds were added to wells and plates were sealed with sealing tape and placed in a 37° C. incubator for 2 hours (OGD). After 2 hours, HBSS was removed and pretreatment medium was returned to the wells. After 24 hours, neuronal death was quantified using CytotoxGlo reagents (Promega) and a Victor^3 V luminometer (Perkin Elmer) according to the manufacturer's instructions. Eight wells per dish were used as DMSO-treated vehicle-only controls. […]

SMILES	dose providing maximum neuroprotection against OGD-induced apoptosis (optimal dose) (primary cortical neurons [1]; 0.01 to 100 nM tested) [nM]	neuroprotection when administered after reoxygenation onset (time course) (primary cortical neurons [1])	neuroprotection in the high-throughput screen (in words) (primary cortical neurons [3])	also measured
C[C@H](COc1ccccc1)N[C@H](C)[C@H](O)c1ccc(O)cc1 (racemic) [Isoxsuprine hydrochloride, 4-{1-hydroxy-2-[(1-methyl-2-phenoxyethyl)amino]propyl}phenol]	1	no loss of efficacy; also recorded: no decrease in neuroprotection; also recorded: no loss of neuroprotection	–	total edema-corrected infarct volume ([2]; 1 mg/kg IV at onset of reperfusion after 90-minute MCAO, 24 hours reperfusion, vehicle 279±25, n=7): 137±18 mm^3; reduction of infarct volume versus vehicle ([2]; single dose 1 mg/kg IV at reperfusion): reduced infarct volume by half
NC(=O)OCC(O)COc1ccc(Cl)cc1 (centres unmarked) [Chlorphenesin carbamate]	–	no decrease in neuroprotection; also recorded: no loss of neuroprotection	–	dose providing maximum neuroprotection against OGD-induced apoptosis (optimal dose) (primary cortical neurons [1]; 100 to 300 μM tested): 200000 nM
CCNCC(O)c1cccc(O)c1 (centres unmarked) [Etilefrine hydrochloride]	1	–	–	neuroprotection when administered after reoxygenation onset (time course) (primary cortical neurons [1]; listed as etilifrine, hydrochloride): significantly decreased; also recorded: significant decrease in neuroprotection
CN1CCN2c3ccccc3Cc3ccccc3C2C1 (centres unmarked) [Mianserine hydrochloride]	–	–	highly protective	neuroprotection in the secondary screen (in words) (primary cortical neurons [1]; given at reoxygenation): ineffective
CC(C)(C)NCC(O)c1cc(Cl)c(N)c(Cl)c1 (centres unmarked) [clenbuterol]	–	–	not identified as a neuroprotective compound	–
